Literature values, collected in patent US20230398240A1, “THERAPEUTIC RADIOLABELLED CONJUGATES AND THEIR USE IN THERAPY” (priority 2020, published 2023).

Key:
[1] = tested on: quiescent endothelial cells; settings: in vitro

N[C@@H](CCC(=O)N[C@@H](CSCC(=O)Nc1ccc([As](O)O)cc1)C(=O)NCC(=O)O)C(=O)O [GSAO, 4-(N—(S-glutathionylacetyl)amino)phenylarsenous acid]
toxicity to proliferating cells (proliferating cells): toxic to proliferating cells | effect on angiogenesis in vivo (angiogenesis): inhibits angiogenesis in vivo | toxicity to quiescent endothelial cells [1]: nontoxic to quiescent endothelial cells
